As a reminder, the IC50 is the midpoint of a concentration-inhibition curve. Low readings indicate greater potency in that assay, high ones weaker potency in that assay.

Consider five compounds from patent US20240383954A1, “PEPTIDE INHIBITORS OF INTERLEUKIN-23 RECEPTOR AND THEIR USE TO TREAT INFLAMMATORY DISEASES” (Janssen Biotech, Inc., priority 2020, published 2024).

Positions of bridges follow the written chain, without caps; N, C: chain ends. Non-standard residues stand in square brackets, D forms with d. Residues, ends and D or L forms follow the SMILES beside them. *: point of attachment. Trp(7-Me) = Cc1cccc2c(C[C@H](N)C(=O)O)c[nH]c12; 2Nal = N[C@@H](Cc1ccc2ccccc2c1)C(=O)O; AEF = NCCOc1ccc(C[C@H](N)C(=O)O)cc1; αMeF = C[C@](N)(Cc1ccccc1)C(=O)O; Pen = CC(C)(S)[C@H](N)C(=O)O; αMeK = C[C@](N)(CCCCN)C(=O)O; Ac5c = NC1(C(=O)O)CCCC1; Thp = NC1(C(=O)O)CCOCC1; X7 = Nc1cccc(N*)c1
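Note: cryopreserved PBMCs stimulated at 37 °C in 5% CO2, then lysed, with phosphorylated STAT3 quantified in lysates using a phospho-STAT panel kit.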

Sequence of IL-23R (Q5VWK5 24-629): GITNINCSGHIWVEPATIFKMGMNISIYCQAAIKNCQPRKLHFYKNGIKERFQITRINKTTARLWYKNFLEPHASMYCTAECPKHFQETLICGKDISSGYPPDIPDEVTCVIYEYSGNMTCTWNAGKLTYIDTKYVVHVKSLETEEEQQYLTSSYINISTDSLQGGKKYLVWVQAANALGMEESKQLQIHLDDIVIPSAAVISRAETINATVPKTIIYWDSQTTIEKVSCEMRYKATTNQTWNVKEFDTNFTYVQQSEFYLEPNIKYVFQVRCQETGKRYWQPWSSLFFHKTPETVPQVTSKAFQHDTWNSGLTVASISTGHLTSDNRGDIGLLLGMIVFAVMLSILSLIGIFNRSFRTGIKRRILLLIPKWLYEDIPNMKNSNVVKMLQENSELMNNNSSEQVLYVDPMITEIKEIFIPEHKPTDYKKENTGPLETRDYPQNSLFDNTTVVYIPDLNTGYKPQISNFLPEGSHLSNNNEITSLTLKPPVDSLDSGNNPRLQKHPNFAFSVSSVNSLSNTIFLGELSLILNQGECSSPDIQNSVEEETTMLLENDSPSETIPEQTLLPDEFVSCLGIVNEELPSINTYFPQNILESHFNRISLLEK

This experiment concerns the target IL-23R (Homo sapiens, UniProt Q5VWK5). The experiment is described as follows: cell-based. As to conditions: PBMC pSTAT3 IC50 (nM), PBMCs from healthy donors, IL-23 5 ng/mL, 30 minutes, phosphorylated STAT3.
`CC(=O)NCCCC[C@@H]1NC(=O)[C@H](Cc2c[nH]c3c(C)cccc23)NC(=O)[C@H]([C@@H](C)O)NC(=O)[C@H](CC(N)=O)NC(=O)[C@@H](NC(C)=O)C(C)(C)SSC(C)(C)[C@@H](C(=O)N[C@@H](Cc2ccc(OCCN)cc2)C(=O)N[C@@H](Cc2ccc3ccccc3c2)C(=O)N[C@@](C)(CCCCN)C(=O)N[C@@H](CCCCNC(C)=O)C(=O)N[C@@H](CC(N)=O)C(=O)N[C@@](C)(Cc2ccccc2)C(=O)N[C@H](Cc2cccc(N)c2)C(N)=O)NC1=O` [Compound 115, Ac-[Pen]-N-T-[W(7-Me)]-[Lys(Ac)]-[Pen]-Phe[4-(2-aminoethoxy)]-[2-Nal]-[a-MeLys]-[Lys(Ac)]-N-[a-MePhe]-(D)Phe[3-NH2]-NH2]: the IC50 was 39 nM. Next, `CC(=O)N[C@H](CCCNC(=N)N)C(=O)N[C@@H]1C(=O)N[C@@H](CCC(N)=O)C(=O)N[C@@H]([C@@H](C)O)C(=O)N[C@@H](Cc2c[nH]c3ccccc23)C(=O)N[C@@H](CCC(N)=O)C(=O)N[C@H](C(=O)N[C@@H](Cc2ccc(OCCN)cc2)C(=O)N[C@@H](Cc2ccc3ccccc3c2)C(=O)NC2(C(=O)N[C@@H](CCC(=O)O)C(=O)N[C@@H](CC(N)=O)C(=O)N[C@@](C)(Cc3ccccc3)C(N)=O)CCOCC2)C(C)(C)SSC1(C)C` [Compound 97, Ac-[(D)Arg]-[Pen]-Q-T-W-Q-[Pen]-Phe[4-(2-aminoethoxy)]-[2-Nal]-[THP]-E-N-[a-MePhe]-NH2] (Ac-[dR][Pen]QTWQ[Pen][AEF][2Nal][Thp]EN[αMeF]-NH2; disulfide 2-7): 31 nM. For `CC(=O)N[C@H](CCCNC(=N)N)C(=O)N[C@@H]1C(=O)N[C@@H](CCC(N)=O)C(=O)N[C@@H]([C@@H](C)O)C(=O)N[C@@H](Cc2c[nH]c3ccccc23)C(=O)N[C@@H](CCC(N)=O)C(=O)N[C@H](C(=O)N[C@@H](Cc2ccc(OCCN)cc2)C(=O)N[C@@H](Cc2ccc3ccccc3c2)C(=O)NC2(C(=O)N[C@@H](CCC(=O)O)C(=O)N[C@@H](CC(N)=O)C(=O)N[C@@H](CC(=O)Nc3cccc(N)c3)C(N)=O)CCOCC2)C(C)(C)SSC1(C)C` [Compound 130, Ac-[(D)Arg]-[Pen]-Q-T-W-Q-[Pen]-Phe[4-(2-aminoethoxy)]-[2-Nal]-[THP]-E-N-[(N-(3-aminophenyl))Asn]-NH2] (Ac-[dR][Pen]QTWQ[Pen][AEF][2Nal][Thp]END(X7)-NH2; disulfide 2-7), the IC50 worked out at 9.2 nM. The result for `CC(=O)NCCCC[C@@H]1NC(=O)[C@H](Cc2c[nH]c3ccccc23)NC(=O)[C@H]([C@@H](C)O)NC(=O)[C@H](CCC(N)=O)NC(=O)[C@@H](NC(C)=O)C(C)(C)SSC(C)(C)[C@@H](C(=O)N[C@@H](Cc2ccc(OCCN)cc2)C(=O)N[C@@H](Cc2ccc3ccccc3c2)C(=O)N[C@@](C)(CCCCN)C(=O)N[C@@H](CCCCNC(C)=O)C(=O)N[C@@H](CC(N)=O)C(=O)N[C@@](C)(Cc2ccccc2)C(N)=O)NC1=O` [Compound 82, Ac-[Pen]-Q-T-W-[Lys(Ac)]-[Pen]-Phe[4-(2-aminoethoxy)]-[2-Nal]-[a-MeLys]-[Lys(Ac)]-N-[a-MePhe]-NH2] (Ac-[Pen]QTWK(Ac)[Pen][AEF][2Nal][αMeK]K(Ac)N[αMeF]-NH2; disulfide 1-6) reads 54 nM; that for `CC(=O)N[C@H](CCCNC(=N)N)C(=O)N[C@@H]1C(=O)N[C@@H](CC(N)=O)C(=O)N[C@@H]([C@@H](C)O)C(=O)N[C@@H](Cc2c[nH]c3c(C)cccc23)C(=O)N[C@@H](CCC(N)=O)C(=O)N[C@H](C(=O)N[C@@H](Cc2ccc(OCCN)cc2)C(=O)N[C@@H](Cc2ccc3ccccc3c2)C(=O)NC2(C(=O)N[C@@H](CCC(=O)O)C(=O)N[C@@H](CC(N)=O)C(=O)NC3(C(N)=O)CCOCC3)CCCC2)C(C)(C)SSC1(C)C` [Compound 99, Ac-[(D)Arg]-[Pen]-N-T-[W(7-Me)]-Q-[Pen]-Phe[4-(2-aminoethoxy)]-[2-Nal]-[Acvc]-E-N-[THP]-NH2] (Ac-[dR][Pen]NT[Trp(7-Me)]Q[Pen][AEF][2Nal][Ac5c]EN[Thp]-NH2; disulfide 2-7), 4.2 nM.
